Target: Acetylcholinesterase (Electrophorus electricus, UniProt O42275)
Sequence (O42275 whole entry): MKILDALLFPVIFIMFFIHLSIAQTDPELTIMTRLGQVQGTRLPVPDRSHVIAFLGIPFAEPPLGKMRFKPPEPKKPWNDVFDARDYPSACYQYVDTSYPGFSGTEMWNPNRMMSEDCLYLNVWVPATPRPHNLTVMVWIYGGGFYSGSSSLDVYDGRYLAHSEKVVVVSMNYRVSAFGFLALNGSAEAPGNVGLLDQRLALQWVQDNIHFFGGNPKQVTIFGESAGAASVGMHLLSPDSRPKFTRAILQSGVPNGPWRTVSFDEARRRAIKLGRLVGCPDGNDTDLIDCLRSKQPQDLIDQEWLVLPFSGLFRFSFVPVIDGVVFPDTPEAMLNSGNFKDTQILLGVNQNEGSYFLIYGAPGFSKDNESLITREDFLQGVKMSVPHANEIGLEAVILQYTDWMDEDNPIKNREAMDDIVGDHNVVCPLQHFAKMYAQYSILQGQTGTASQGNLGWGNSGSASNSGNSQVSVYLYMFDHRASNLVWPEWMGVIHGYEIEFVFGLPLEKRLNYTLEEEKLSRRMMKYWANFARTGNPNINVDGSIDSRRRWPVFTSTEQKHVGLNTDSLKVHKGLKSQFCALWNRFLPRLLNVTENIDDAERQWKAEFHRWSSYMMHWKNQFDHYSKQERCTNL
Description: In vitro inhibitory activity against acetylcholinesterase from electric eel

| SMILES | IC50 [µM] |
| --- | --- |
| CNC(=O)Oc1ccc2c(c1)[C@]1(C)CCN(C(=O)NC)C1N2C (some centres not stated) | 9.3 |
| CN(C)C(=O)Oc1cccc([N+](C)(C)C)c1 [NEOSTIGMINE BROMIDE] | 0.087 |
